Assay results published in PMC9484059, “Integrated multi-omics analysis and microbial recombinant protein system reveal hydroxylation and glycosylation involving nevadensin biosynthesis in Lysionotus pauciflorus” (Microbial Cell Factories, 2022).

Tested on: T1, LpUGT95
T1 construct: cloned from cDNA into pMAL-c2x (MBP fusion vector), expressed in E. coli, purified recombinant
Test: UPLC product formation, Hyper […] fit
Assay type: biochemical, Lysionotus pauciflorus
Details: 2 mM UDP-glucose as sugar donor, 10 mM DTT, 50 mM Tris-HCl pH 7.4, 30 °C, 30 min

- Km: 596 µM
SMILES: COc1ccc(-c2cc(=O)c3c(O)c(OC)c(O)c(OC)c3o2)cc1 [nevadensin, 5,7-dihydroxy-6,8,4'-trimethoxyflavone]
